Measured values reported in patent US20250144067A1, “PERSONALIZED STARVATION THERAPY FOR CANCER” (Faeth Therapeutics, Inc., priority 2021, published 2025).
Where a name gives a salt, the structure may show the parent alone. Read-outs that look alike come from different tables or passages of the source.

Tests used:
[1] = tested on: NCI-H292 lung cancer cells; assay: FDA drug screening, complete media vs cholesterol-free media without statin (TABLE 1); type: cell-based, human
[2] = tested on: NCI-H292 lung cancer cells; assay: FDA drug screening, complete media vs cholesterol-free media with simvastatin (TABLE 2); type: cell-based, human
[3] = Complete minus Cholesterol-free, >0 enhanced anti-cancer activity, about 0 neutral, <0 antagonist
[4] = NCI-H292 cells, cholesterol-free media without statin, FDA drug library screen
[5] = NCI-H292 cells, complete media, FDA drug library screen
[6] = NCI-H292 cells, FDA drug library screen, cholesterol-free media with simvastatin 0.04 μM
[7] = NCI-H292 cells, FDA drug library screen, complete media
[8] = complete media vs cholesterol-free media + simvastatin (0.04 μM), >0 enhanced anti-cancer activity, about 0 neutral, <0 antagonist
[9] = NCI-H292 cells, cholesterol-free media without statin
[10] = NCI-H292 cells, cholesterol-free media with simvastatin 0.04 μM, FDA drug library screen (TABLE 2)
[11] = NCI-H292 cells, complete media, FDA drug library screen (TABLE 2)
[12] = complete media minus cholesterol-free media + simvastatin (0.04 μM), >0 enhanced anti-cancer activity, about 0 neutral, <0 antagonist
[13] = complete media minus cholesterol-free media + simvastatin, >0 enhanced anti-cancer activity, about 0 neutral, <0 antagonist
[14] = Complete minus Cholesterol-free, greater than 0 enhanced anti-cancer activity, about 0 neutral, below 0 antagonist
[15] = NCI-H292 cells, FDA drug library screen, cholesterol-free media without statin
[16] = NCI-H292 cells, FDA library drug in cholesterol-free media with simvastatin 0.04 μM
[17] = NCI-H292 cells, FDA library drug in complete media
[18] = complete media vs cholesterol-free media + simvastatin (0.04 μM), […]
[19] = complete vs cholesterol-free media, >0 enhanced anti-cancer activity, about 0 neutral, <0 antagonist
[20] = NCI-H292 cells, drug in cholesterol-free media with simvastatin 0.04 μM
[21] = NCI-H292 cells, drug in complete media
[22] = Complete minus Cholesterol-free, greater than 0 enhanced anti-cancer activity, about 0 neutral, below 0 antagonists
[23] = NCI-H292 cells in cholesterol-free media without statin
[24] = NCI-H292 cells in complete media

| Compound | Difference [1, 3] | Cholesterol-free [1, 4] | Complete [1, 5] | Cholesterol-free media + simvastatin (0.04 μM) [2, 6] | Complete Media [2, 7] | Difference [2, 8] | Cholesterol-free [1, 9] | Complete ([1]; NCI-H292 cells, complete media) | other results |
| --- | --- | --- | --- | --- | --- | --- | --- | --- | --- |
| S=P(N1CC1)(N1CC1)N1CC1 [Thio-TEPA] |  |  |  |  |  |  |  |  | Cholesterol-free [1]: 0.9267; Complete [1]: 0.7941; Difference [1]: −0.13; Cholesterol-free media + simvastatin (0.04 μM) [2]: 0.6864; Complete Media [2]: 0.8177; Difference [2]: 0.13 |
| NC(CO)C(=O)NNCc1ccc(O)c(O)c1O (centres unmarked) [Benserazide (hydrochloride)] | 0.01 | 1.039 | 1.047 | 1.132 | 1.052 | −0.08 |  |  |  |
| CC(=O)OCC(=O)[C@@]1(O)CC[C@H]2[C@@H]3CCC4=CC(=O)CC[C@]4(C)[C@H]3[C@@H](O)C[C@@]21C [Hydrocortisone acetate] | −0.20 |  |  | 0.7827 | 0.63 | −0.15 | 0.8261 | 0.6264 |  |
| O=C1[C@@H]2[C@H]3CC[C@H](C3)[C@@H]2C(=O)N1C[C@@H]1CCCC[C@H]1CN1CCN(c2nsc3ccccc23)CC1 [Lurasidone (Hydrochloride)] | −0.27 |  |  |  |  |  | 1.115 | 0.8426 | Cholesterol-free media + simvastatin (0.04 μM) [2, 10]: 0.8431; Complete Media [2, 11]: 0.8046; Difference [2, 12]: −0.04 |
| CCC(=O)OCC(=O)[C@@]1(OC(=O)CC)[C@@H](C)C[C@H]2[C@@H]3CCC4=CC(=O)C=C[C@]4(C)[C@@]3(F)[C@@H](O)C[C@@]21C [Betamethasone dipropionate] | −0.28 |  |  |  |  |  | 0.9149 | 0.6317 | Cholesterol-free media + simvastatin (0.04 μM) ([2]; NCI-H292 cells, cholesterol-free media with simvastatin 0.04 μM, cell growth value in FDA drug screen): 0.5238; Complete Media ([2]; NCI-H292 cells, complete media, cell growth value in FDA drug screen): 0.6181; Difference [2, 13]: 0.09 |
| CCCCCCCCCCCCN1CCCCCC1=O [Laurocapram] | −0.06 |  | 0.887 | 1.036 | 0.883 | −0.15 |  |  |  |
| COc1ccc(-c2cc(=S)ss2)cc1 [Anethole (trithione)] |  |  |  |  |  | −0.86 |  |  | Difference [1, 14]: −0.18; Cholesterol-free [1, 15]: 1.563; Complete [1, 7]: 1.382; Cholesterol-free media + simvastatin (0.04 μM) [2, 16]: 1.972; Complete Media [2, 17]: 1.115 |
| CC[C@H]1OC(=O)[C@H](C)[C@@H](O[C@H]2C[C@@](C)(OC)[C@@H](O)[C@H](C)O2)[C@H](C)[C@@H](O[C@@H]2O[C@H](C)C[C@H](N(C)C)[C@H]2O)[C@](C)(O)C[C@@H](C)C(=O)[C@H](C)[C@H]2OC(=O)O[C@@]21C [Davercin] |  | 0.5403 | 0.9622 | 1.064 | 0.9657 |  |  |  | Difference ([1]; complete vs cholesterol-free media, […]): 0.42; Difference [2, 18]: −0.10 |
| C[C@@H](c1ncncc1F)[C@](O)(Cn1cncn1)c1ccc(F)cc1F [Voriconazole] |  | 0.6824 | 0.9897 |  |  | −0.22 |  |  | Difference [1, 19]: 0.31; Cholesterol-free media + simvastatin (0.04 μM) [2, 20]: 1.08; Complete Media [2, 21]: 0.8559 |
| Clc1ccc(C(OCCN2CCCCC2)c2ccccc2)cc1 (centres unmarked) [Cloperastine (hydrochloride)] | −0.28 |  |  | 1.648 | 1.547 | −0.10 | 1.087 | 0.8022 |  |
| CCCNC(C)C(=O)Nc1ccccc1C (centres unmarked) [Prilocaine] |  |  |  |  |  | −0.26 |  |  | Difference [1, 22]: −0.49; Cholesterol-free [1, 23]: 1.366; Complete [1, 24]: 0.8796; Cholesterol-free media + simvastatin (0.04 μM) [2, 20]: 1.231; Complete Media [2, 21]: 0.9727 |
| Cc1cccc(C)c1NC(=O)C1CCCCN1C (centres unmarked) [Mepivacaine] |  |  |  |  |  | −0.57 |  |  | Difference [1, 14]: −0.09; Cholesterol-free [1, 15]: 1.247; Complete [1, 7]: 1.156; Cholesterol-free media + simvastatin (0.04 μM) [2, 16]: 1.558; Complete Media [2, 17]: 0.984 |
| O=C(NC[C@H]1CN(c2ccc(N3CCOCC3=O)cc2)C(=O)O1)c1ccc(Cl)s1 [Rivaroxaban] | −0.30 |  |  | 1.199 | 1.057 | −0.14 | 1.076 | 0.7773 |  |
| Ribociclib succinate | −0.23 |  |  |  |  |  | 0.9857 | 0.7555 | Cholesterol-free media + simvastatin (0.04 μM) [2, 10]: 0.606; Complete Media [2, 11]: 0.6094; Difference [2, 12]: 0.00 |
| O=C(O)C[C@@H]1CC[C@H](NC(=O)Cc2cccs2)B(O)O1 [Vaborbactam] | 0.06 | 0.9017 | 0.9648 |  |  |  |  |  | Cholesterol-free media + simvastatin (0.04 μM) [2, 10]: 0.8544; Complete Media [2, 11]: 0.8532; Difference [2, 12]: 0.00 |
| N#C[C@@H]1C[C@@H]2C[C@@H]2N1C(=O)[C@@H](N)C12CC3CC(CC(O)(C3)C1)C2 [Saxagliptin] | −0.04 | 0.9657 | 0.9238 |  |  |  |  |  | Cholesterol-free media + simvastatin (0.04 μM) [2, 10]: 0.8307; Complete Media [2, 11]: 0.816; Difference [2, 12]: −0.01 |
| COc1ccc2cccc(CCNC(C)=O)c2c1 [Agomelatine] |  | 0.6611 | 0.8138 |  |  | −0.29 |  |  | Difference [1, 19]: 0.15; Cholesterol-free media + simvastatin (0.04 μM) [2, 16]: 1.184; Complete Media [2, 17]: 0.8914 |
| NC(=O)OC[C@H](N)Cc1ccccc1 [Solriamfetol] |  | 1.006 | 0.9654 |  |  |  |  |  | Difference ([1]; Complete minus Cholesterol-free, […]): −0.04; Cholesterol-free media + simvastatin (0.04 μM) [2, 16]: 1.23; Complete Media [2, 17]: 0.8852; Difference [2, 18]: −0.34 |
| Disodium succinate |  |  |  |  |  |  |  |  | Cholesterol-free [1]: 1.636; Complete [1]: 0.8171; Difference [1]: −0.82; Cholesterol-free media + simvastatin (0.04 μM) [2]: 1.636; Complete Media [2]: 1.676; Difference [2]: 0.04 |
| COc1cc(NS(=O)(=O)c2ccc(N)cc2)ncn1 [Sulfamonomethoxine] |  |  |  |  |  | −0.27 |  |  | Difference [1, 22]: −0.48; Cholesterol-free [1, 23]: 1.378; Complete [1, 24]: 0.8971; Cholesterol-free media + simvastatin (0.04 μM) [2, 16]: 1.013; Complete Media [2, 17]: 0.7465 |
| COc1ccc2c(c1)C(=O)N(CCc1ccc(S(=O)(=O)NC(=O)NC3CCCCC3)cc1)C(=O)C2(C)C [Gliquidone] |  |  |  |  |  | −0.33 |  |  | Difference [1, 22]: −0.68; Cholesterol-free [1, 23]: 1.724; Complete [1, 24]: 1.039; Cholesterol-free media + simvastatin (0.04 μM) [2, 16]: 1.335; Complete Media [2, 17]: 1.002 |
| Clomiphene (citrate) | −0.25 |  |  | 0.1462 | 1.001 |  | 1.001 | 0.7484 | Difference [2, 13]: 0.85 |
| O=S(=O)(O)Oc1ccc(C(c2ccc(OS(=O)(=O)O)cc2)c2ccccn2)cc1 [Sodium Picosulfate] |  |  |  | 0.987 | 1.164 |  | 1.414 | 1.043 | Difference ([1]; complete vs cholesterol-free media, greater than 0 enhanced anti-cancer activity, about 0 neutral, below 0 antagonists): −0.37; Difference [2, 13]: 0.18 |
